This note sets out measurements from US20230247987A1, “THE USE OF SAFENERS TO IMPROVE TOLERANCE OF ACCASE TOLERANT SORGHUM CROP TO HERBICIDES” (Adama Agan Ltd., priority 2020, published 2023).

Common to all, as to type: in vivo
Series [1] relates to ACCase tolerant sorghum variety BTX430-CHR-ACC1. Nature of the series: Greenhouse crop response of ACCase tolerant sorghum to quizalofop with and without isoxadifen. The note with it: FIG. 1, X-rates 0.5-8 (Quizalofop 39-616 g/ha, Isoxadifen 27-431 g/ha), rated approximately 14 days after application, versus quizalofop without isoxadifen. An excerpt: Seeds of the proprietary ACCase tolerant sorghum variety BTX430-CHR-ACC1 (ATCC deposit PTA-125106, mutation W1999C) were supplied by S&W. BTX430-CHR-ACC1 sorghum cultivar contains a single mutation in the ACCase gene that confers ACCase tolerance: Tryptophan to Cysteine amino acid substitution at an amino acid position 1999 (W1999C; SEQ ID NO: 7 as disclosed in WO 2018/222715, namely the sequence denoted herein by SEQ ID NO: 6) aligning with the amino acid sequence of SEQ ID NO: 6 (as disclosed in WO 2018/222715, namely the sequence denoted herein by SEQ ID NO: 5). The mutation provides tolerance to quizalofop.
ACCase tolerant Sorghum seeds (S & W Line ID: T19-90001) were planted in commercial greenhouse soil mix in ˜8-cm square pots.
Plants were started in a greenhouse and placed outdoors at ambient air temperatures when temperatures were conducive to sorghum growth.
Soil fertility and moisture were provided on an as needed basis.
Plants were grown to heights of 10 to 13, 15-18, 20 to 25 and 30 to 35 cm for treatment.
Safener was premixed in the ADM.7000.H.2.A formulation.
Sorghum plants were subjected to “Standard Weed Science Percentage Rankings” where 0=no effect of the herbicide and 100%=complete plant death. Injury represents discoloration, stunting and malformation. Ratings were taken approximately 14 days after herbicide application. […]

Another series concerns Setaria viridis. Nature of the series: Field trials: control of Setaria viridis.
Series [2] has as its system shattercane (Sorghum bicolor). Kind of series: Field trial: control of shattercane. To be noted: after 7 days.
The subject of a further series is Panicum miliace. Nature of the series: Field trials: control of Panicum miliace.
The mark [3] stands for this setting: Table 4 trial, after 33 days, X-rate 0.5: Quizalofop 5 oz/a, Isoxadifen 5 oz/a or none.
Where [4] appears, read: Table 4 trial, after 33 days, X-rate 1: Quizalofop 10 oz/a, Isoxadifen 10 oz/a or none.
Setting [5] is: Table 4 trial, after 33 days, X-rate 2: Quizalofop 20 oz/a, Isoxadifen 20 oz/a or none.
[6] abbreviates: Table 5 second trial, after 27 days, X-rate 0.5: Quizalofop 5 oz/a, Isoxadifen 5 oz/a or none.
Where [7] appears, read: Table 5 second trial, after 27 days, X-rate 1: Quizalofop 10 oz/a, Isoxadifen 10 oz/a or none.
The mark [8] stands for this setting: Table 5 second trial, after 27 days, X-rate 2: Quizalofop 20 oz/a, Isoxadifen 20 oz/a or none.

As to `O=C(O)C1=NOC(c2ccccc2)(c2ccccc2)C1` [isoxadifen], the “crop response (percentage of sorghum crop displaying phytotoxicity) against the X-Rate” value in series [1] is given as “significant decrease of crop response”.
Consider `CCOC(=O)[C@@H](C)Oc1ccc(Oc2cnc3cc(Cl)ccc3n2)cc1` [Quizalofop, quizalofop P-ethyl], for which the “% control Setaria viridis” value in the series with Setaria viridis (setting [3]), in the series with Setaria viridis (setting [4]), in the series on Setaria viridis (setting [5]), in the series with Setaria viridis (setting [6]), in the series with Setaria viridis (setting [7]) and in the series on Setaria viridis (setting [8]) was 100% in each case. Moreover, the “% control Shattercane” value is reported as 96.8% in series [2] (X-rate 0.5: Quizalofop 5 oz/a, Isoxadifen 5 oz/a or none); 96.8% in series [2] (X-rate 1: Quizalofop 10 oz/a, Isoxadifen 10 oz/a or none); 99% in series [2] (X-rate 2: Quizalofop 20 oz/a, Isoxadifen 20 oz/a or none). Also, the “% control Panicum miliace” value in the series on Panicum miliace (setting [3]), in the series with Panicum miliace (setting [4]), in the series with Panicum miliace (setting [5]), with Panicum miliace (setting [6]), in the series with Panicum miliace (setting [7]) and with Panicum miliace (setting [8]) was 100% throughout.
